According to patent US20160100585A1, “Pesticidal Mixtures” (priority 2012, published 2016):

Legend:
Type in all cases: in vivo
[1] = system: Sclerotinia sclerotiorum; test: Action against Sclerotinia sclerotiorum in soybean using pot trials (Use example FG-6); settings: soy bean cv. Goriziana, pots, 14 days at 20° C; % of the untreated control (infection level 96%); pyraclostrobin 2.5 g ai/100 kg seeds as seed treatment, B. pumilus INR7 10 ml broth per seed as drench
Method: Pyraclostrobin was applied as commercial seed treatment formulation […], Ludwigshafen, Germany). The application of the pyraclostrobin was done as seed treatment and the seeds were treated in the BASF Seed Solutions Technology Center (SSTC) Limburgerhof using a batch lab treater. The respective amount of seeds was placed in the bowl of the treater and the slurry was dosed on the spinning disk. The B. pumilus INR7 were grown in shake flasks and used as fermentation broth with of at least 1×10^12 CFU per ml. This broth was added as a drench solution directly adjacent to the seeds with 10 ml for each seed kernel which makes 50 ml per pot. For the infection, rye kernels inoculated with Sclerotinia sclerotiorum were used. The trial was sown in 8 cm pots and as a substrate a mix of peat substrate and sand in the ratio 1:4 was used. The pots were filled with the substrate and the rye kernels inoculated with Sclerotinia sclerotiorum were placed directly adjacent to the seeds. In each pot 5 soy bean seeds (cv. Goriziana) were sown at a sowing depth of 2 cm, then covered with substrate. For each treatment 5 replications were made. […] For the assessment, the plants were evaluated according to a 2 class evaluation (healthy, diseased). Those figures were converted into efficacies in % of the untreated control and the efficacy (E) was calculated as follows using Abbot's formula.

[2] = system: Gaeumannomyces graminis; test: Action against Gaeumannomyces graminis in wheat using pot trials (Use example FG-7); settings: wheat cv. JB Asano, pots, 14 days at 20° C; % of the untreated control (infection 96%); pyraclostrobin 2.5 g ai/100 kg seeds as seed treatment, B. pumilus INR7 10 ml broth per seed as drench
Method: Pyraclostrobin was applied as commercial seed treatment formulation […], Ludwigshafen, Germany). The application of the pyraclostrobin was done as seed treatment and the seeds were treated in the BASF Seed Solutions Technology Center (SSTC) Limburgerhof using a batch lab treater. The respective amount of seeds was placed in the bowl of the treater and the slurry was dosed on the spinning disk. The B. pumilus INR7 were grown in shake flasks and used as fermentation broth with of at least 1×10^12 CFU per ml. This broth was added as a drench solution directly adjacent to the seeds with 10 ml for each seed kernel which makes 50 ml per pot. For the assessment, the plants were evaluated according to a 2 class evaluation (healthy, diseased). Those figures were converted into efficacies in % of the untreated control and the efficacy (E) was calculated as follows using Abbot's formula. Experimental setup was identical to Use example FG-6 unless described below. For the infection, rye kernels inoculated with Gaeumannomyces graminis were used. The trial was sown in 8 cm pots and a mix of peat substrate and sand (ratio 1:4) was used as a substrate. The pots were filled with the substrate and the rye kernels inoculated with Gaeumannomyces graminis were placed directly adjacent to the wheat seeds. […] JB Asano) were sown at a sowing depth of 1.5 cm and then covered with substrate. […]

[3] = system: wheat; test: Improvement of plant height in wheat, pot trials (Use example H-2); settings: wheat cv. JB Asano, pots, 14 days at 20° C; untreated control = 100% (13.9 cm); pyraclostrobin 5 g ai/100 kg seeds as seed treatment, B. pumilus INR7 10 ml broth per seed as drench
Method: Pyraclostrobin was applied as commercial seed treatment formulation STAMINA (200 g/L a.i., BASF SE, Ludwigshafen, Germany).
In pot trials in Limburgerhof greenhouses, Bacillus pumilis INR7 was tested in wheat and maize as solo products and in combination with pyraclostrobin to show effects on plant height. The application of the pyraclostrobin was done as seed treatment and the seeds were treated in the BASF Seed Solutions Technology Center (SSTC) Limburgerhof using a batch lab treater. The respective amount of seeds was placed in the bowl of the treater and the slurry was dosed on the spinning disk.
The bacterials were grown in shake flasks and used as fermentation broth with a CFU of at least 1×10^12 per ml. This broth was added as a drench solution directly adjacent to the seeds with 10 ml for each seed kernel which makes 50 ml per pot.
The trial was sown in 8 cm pots and a mix of peat substrate and sand (ratio 1:4) was used as a substrate. […]
For the assessment, the plant height from all plants was measured in cm. […]
The expected relative plant height of active compound combinations were determined using Colby's formula (Colby, S. R. “Calculating synergistic and antagonistic responses of herbicide combinations”, Weeds 15, pp. 20-22, 1967) and compared with the observed efficacies. […]

## Pyraclostrobin
[1]
  Observed efficacy: 16.7%
[2]
  Observed efficacy: 5.0%
[3]
  Observed relative plant height: 99.4%
